Experimental data taken from paper PMC8286840, “Identifying SARS-CoV-2 antiviral compounds by screening for small molecule inhibitors of Nsp3 papain-like protease” (Biochemical Journal, 2021).
Counter-ions that a name gives are not always drawn. Like-named read-outs stand apart in the source and are kept apart here.

How the values were obtained:
[1] = molecular target: T1, SARS-CoV-2 PLpro (nsp3 1564–1878) (Severe acute respiratory syndrome coronavirus 2, UniProt P0DTD1); test: biochemical; design: FRET-quenched peptide (Pro3) cleavage by PLpro, 10 min pre-incubation, slope over 20 min, normalised to no-compound control; settings: low concentration screen, read-out: % of control remaining
[2] = molecular target: T1, SARS-CoV-2 PLpro (nsp3 1564–1878); test: biochemical; design: FRET-quenched peptide (Pro3) cleavage by PLpro, 10 min pre-incubation, slope over 20 min, normalised to no-compound control; settings: high concentration screen, read-out: % of control remaining

Work on `CC(C)N1CCC(N2CCCN(c3cccc(C(=O)Nc4ccncc4)n3)CC2)CC1` [USL311] yielded a remaining activity at 1.25 µM ([1]; Well no.=8707) of 99.4% and a remaining activity at 3.75 µM ([2]; Well no.=8707) of 103%.

Work on `O=C1/C(=C/c2ccc([N+](=O)[O-])cc2)CS(=O)(=O)C/C1=C\c1ccc([N+](=O)[O-])cc1` [Ubiquitin Isopeptidase Inhibitor I, G5] yielded a remaining activity at 1.25 µM ([1]; Well no.=6388) of 93.2% and a remaining activity at 3.75 µM ([2]; Well no.=6388) of 95.7%.

In the case of `CC(=O)[C@@]1(O)CC[C@H]2[C@@H]3CCC4=CC(=O)CCC4=C3[C@@H](c3ccc(N(C)C)cc3)C[C@@]21C` [Ulipristal], the remaining activity at 1.25 µM ([1]; Well no.=4929) was 105% and the remaining activity at 3.75 µM ([2]; Well no.=4929) was 104%.

For `O=C(O)CCCCCCCCCC(=O)O` [Undecanedioic acid], the remaining activity at 1.25 µM ([1]; Well no.=6785) was 102% and the remaining activity at 3.75 µM ([2]; Well no.=6785) was 99.4%.

`CCCCCCCCCCC(=O)O` [Undecanoic acid] was tested, and the remaining activity at 1.25 µM ([1]; Well no.=4252) was 95.5% and the remaining activity at 3.75 µM ([2]; Well no.=4252) was 91.9%.

`CC(C)(C)C(O)/C(=C\c1ccc(Cl)cc1)n1cncn1` (centres unmarked) [Uniconazole] was tested, and the remaining activity at 1.25 µM ([1]; Well no.=8248) was 104% and the remaining activity at 3.75 µM ([2]; Well no.=8248) was 102%.

With `O=c1cc[nH]c(=O)[nH]1` [Uracil] the remaining activity at 1.25 µM ([1]; Well no.=7023) was 103% and the remaining activity at 3.75 µM ([2]; Well no.=7023) was 102%.

In the case of `COc1ccccc1N1CCN(CCCNc2cc(=O)n(C)c(=O)n2C)CC1` [Urapidil hydrochloride], the remaining activity at 1.25 µM ([1]; Well no.=1476) was 98.2% and the remaining activity at 3.75 µM ([2]; Well no.=1476) was 97.2%.

Compound `O=c1ccn([C@@H]2O[C@H](CO)[C@@H](O)[C@H]2O)c(=O)[nH]1` [Uridin] has a remaining activity at 1.25 µM ([1]; Well no.=8849) of 101%, a remaining activity at 3.75 µM ([2]; Well no.=6399) of 106% and a remaining activity at 3.75 µM ([2]; Well no.=8849) of 94.8%.

`O=c1ccn([C@@H]2O[C@H](COP(=O)(O)OP(=O)(O)O)[C@@H](O)[C@H]2O)c(=O)[nH]1` [Uridine 5'-diphosphate sodium] showed a remaining activity at 1.25 µM ([1]; Well no.=1188) of 104% and a remaining activity at 3.75 µM ([2]; Well no.=1188) of 104%.

Compound `O=c1ccn([C@@H]2O[C@H](COP(=O)(O)O)[C@@H](O)[C@H]2O)c(=O)[nH]1` [Uridine 5'-monophosphate disodium salt] has a remaining activity at 1.25 µM ([1]; Well no.=8935) of 112% and a remaining activity at 3.75 µM ([2]; Well no.=8935) of 97.2%.

Work on `O=c1ccn([C@@H]2O[C@H](COP(=O)(O)O)[C@@H](O)[C@H]2O)c(=O)[nH]1` [Uridine 5'-monophosphate] yielded a remaining activity at 1.25 µM ([1]; Well no.=7495) of 103%, a remaining activity at 1.25 µM ([1]; Well no.=8889) of 101% and a remaining activity at 3.75 µM ([2]; Well no.=7495) of 103%. For the same compound, the remaining activity at 3.75 µM ([2]; Well no.=8889) was 99%.

Compound `CC(=O)OC[C@H]1O[C@@H](n2ccc(=O)[nH]c2=O)[C@H](OC(C)=O)[C@@H]1OC(C)=O` [Uridine triacetate] has a remaining activity at 1.25 µM ([1]; Well no.=7996) of 92.7% and a remaining activity at 3.75 µM ([2]; Well no.=7996) of 94.1%.

In the case of `O=c1ccn([C@@H]2O[C@H](COP(=O)(O)OP(=O)(O)OP(=O)(O)O)[C@@H](O)[C@H]2O)c(=O)[nH]1` [Uridine triphosphate (trisodium salt)], the remaining activity at 1.25 µM ([1]; Well no.=7810) was 105% and the remaining activity at 3.75 µM ([2]; Well no.=7810) was 105%.

`O=c1ccn([C@@H]2O[C@H](COP(=O)(O)OP(=O)(O)OP(=O)(O)O)[C@@H](O)[C@H]2O)c(=O)[nH]1` [Uridine triphosphate] was tested, and the remaining activity at 1.25 µM ([1]; Well no.=8933) was 95.1% and the remaining activity at 3.75 µM ([2]; Well no.=8933) was 97.6%.

Compound `O=c1ccn([C@@H]2O[C@H](COP(=O)(O)OP(=O)(O)O)[C@@H](O)[C@H]2O)c(=O)[nH]1` [Uridine-5'-diphosphate disodium salt] has a remaining activity at 1.25 µM ([1]; Well no.=7718) of 96.1% and a remaining activity at 3.75 µM ([2]; Well no.=7718) of 97.7%.

For `O=c1ccn([C@@H]2O[C@H](CO)[C@@H](O)[C@H]2O)c(=O)[nH]1` [Uridine], the remaining activity at 1.25 µM ([1]; Well no.=4716) was 103% and the remaining activity at 3.75 µM ([2]; Well no.=4716) was 104%.

`C[C@H]1[C@H](C)CC[C@]2(C(=O)O)CC[C@]3(C)C(=CC[C@@H]4[C@@]5(C)CC[C@H](O)C(C)(C)[C@@H]5CC[C@]43C)[C@H]12` [Ursolic acid] gave a remaining activity at 1.25 µM ([1]; Well no.=3585) of 107% and a remaining activity at 3.75 µM ([2]; Well no.=3585) of 113%.

With `C[C@H]1[C@H](C)CC[C@]2(C(=O)O)CC[C@]3(C)C(=CC[C@@H]4[C@@]5(C)CCC(=O)C(C)(C)[C@@H]5CC[C@]43C)[C@H]12` [Ursonic acid] the remaining activity at 1.25 µM ([1]; Well no.=6448) was 98.3% and the remaining activity at 3.75 µM ([2]; Well no.=6448) was 98.4%.

`CS(=O)(=O)c1ccc(-c2cnc(N)c(C(=O)Nc3ccccc3)n2)cc1` [VE-821] showed a remaining activity at 1.25 µM ([1]; Well no.=4790) of 97.8% and a remaining activity at 3.75 µM ([2]; Well no.=4790) of 96.4%.

For `O=C1Nc2ccc(Br)cc2/C1=C/c1cc2c([nH]1)CCCC2` [VEGF Receptor 2 Kinase Inhibitor II], the remaining activity at 1.25 µM ([1]; Well no.=2651) was 86% and the remaining activity at 3.75 µM ([2]; Well no.=2651) was 87.8%.

For `COc1ccc(-c2cnc3c(-c4ccsc4)cnn3c2)cc1` [VEGF Receptor 2 Kinase Inhibitor IV], the remaining activity at 1.25 µM ([1]; Well no.=2655) was 95.2% and the remaining activity at 3.75 µM ([2]; Well no.=2655) was 97%.

Work on `CCOC(=O)c1c(C)[nH]c(/C=C2\C(=O)Nc3ccccc32)c1C` [VEGF Receptor 2 Kinase Inhibitor I] yielded a remaining activity at 1.25 µM ([1]; Well no.=2645) of 97.1% and a remaining activity at 3.75 µM ([2]; Well no.=2645) of 102%.

For `N#Cc1ccc(COC[C@H]2O[C@@H](n3c(NCc4ccc(Cl)c(Cl)c4)nc4c(N)ncnc43)[C@H](O)[C@@H]2O)cc1` [VER155008], the remaining activity at 1.25 µM ([1]; Well no.=8816) was 89.7% and the remaining activity at 3.75 µM ([2]; Well no.=8816) was 89.6%.

`CCNC(=O)c1[nH]nc(-c2cc(Cl)c(O)cc2O)c1-c1ccc(OC)cc1` [VER-49009] showed a remaining activity at 1.25 µM ([1]; Well no.=8622) of 100% and a remaining activity at 3.75 µM ([2]; Well no.=8622) of 100%.

`CCNC(=O)c1noc(-c2cc(Cl)c(O)cc2O)c1-c1ccc(OC)cc1` [VER-50589] was tested, and the remaining activity at 1.25 µM ([1]; Well no.=8670) was 95.3% and the remaining activity at 3.75 µM ([2]; Well no.=8670) was 97.5%.

Compound `C=CC(=O)N1CC/C(=C\c2ccc(F)c([N+](=O)[O-])c2)C(=O)/C(=C/c2ccc(F)c([N+](=O)[O-])c2)C1` [VLX1570] has a remaining activity at 1.25 µM ([1]; Well no.=7794) of 95.6% and a remaining activity at 3.75 µM ([2]; Well no.=7794) of 95.4%.

For `COc1ccc(CNC(=O)c2sc3nc(C)cc(C)c3c2N)cc1` [VU0152100], the remaining activity at 1.25 µM ([1]; Well no.=5931) was 95.9%, the remaining activity at 1.25 µM ([1]; Well no.=7293) was 91.9% and the remaining activity at 3.75 µM ([2]; Well no.=5931) was 98.2%. The remaining activity at 3.75 µM ([2]; Well no.=7293) was 88.9%.

For `CCOC(=O)N1CCC(NCCNC(=O)c2ccccc2C)CC1` [VU0357017 (hydrochloride)], the remaining activity at 1.25 µM ([1]; Well no.=6995) was 97.4% and the remaining activity at 3.75 µM ([2]; Well no.=6995) was 95.5%.

Compound `COc1cc(NC(=O)c2ccccn2)ccc1Cl` [VU0361737] has a remaining activity at 1.25 µM ([1]; Well no.=7189) of 99.9% and a remaining activity at 3.75 µM ([2]; Well no.=7189) of 97.6%.

Work on `O=C(Nc1cccc(Cl)c1)c1ccccn1` [VU0364770] yielded a remaining activity at 1.25 µM ([1]; Well no.=7761) of 102% and a remaining activity at 3.75 µM ([2]; Well no.=7761) of 105%.

In the case of `Cc1cc(OCCCc2c3n(c4c(-c5c(C)nn(C)c5C)c(Cl)ccc24)[C@H](C)CN(c2cn(C)c4ccc(C(=O)O)cc24)C3=O)cc(C)c1Cl` [VU0661013], the remaining activity at 1.25 µM ([1]; Well no.=7066) was 105% and the remaining activity at 3.75 µM ([2]; Well no.=7066) was 98.3%.

For `COc1ccc(CN2C(=O)C(=O)c3cc(OC(F)(F)F)ccc32)cc1` [VU 0238429], the remaining activity at 1.25 µM ([1]; Well no.=8702) was 97.3% and the remaining activity at 3.75 µM ([2]; Well no.=8702) was 93.7%.
